Assay results published in patent publication US20040043047A1, “Cosmetic or dermatological compositions containing at least one substance for increasing the functionality and/or expression of the CD44 membrane receptors of skin cells” (priority 1999, published 2004).
Where two headings read alike, the source gives them in different places. Marks after values point to notes of the source that are not given here.

What was measured:
CD44 = assay: Expression of the hyaluronic acid receptor (CD44) at the surface of keratinocytes, anti-CD44 antibody labelling normalized to cellular DNA (protocol II); assay type: cell-based, human; settings: 0.22 mM
Procedure: II—Measurement of the Expression of the Hyaluronic Acid Receptor (CD44) at the Surface of Keratinocytes
Steps 1 and 2 are identical to steps 1 and 2 of I.
3—Binding of the cells to 2% paraformaldehyde in PBS containing calcium and magnesium for 5 minutes at ambient temperature.
4—Saturation of the Nonspecific Antigen-Antibody Binding Sites:
After rinsing twice with PBS, the cells are incubated with PBS saturation medium with calcium and magnesium supplemented with 5% v/v of calf serum and 0.05% w/v of sodium azide, for 1 hour at ambient temperature. […]
7—Fluorescence Quantification:
After rinsing twice with the saturation medium, the fluorescence present in the wells is read with 50 μl of PBS at λ excitation=544 nm and k emission=590 nm. […]
The products whose activity on the expression of the CD44 receptor it is desired to evaluate are added to the culture medium 24 hours after inoculation of the cells. […] Controls are carried out in the absence of the products to be evaluated, and in the presence of the excipient which was used to dissolve them. […]
(§1) The values thus obtained are normalized, taking account of the amount of cellular material present in the wells. To do this, the cellular DNA content is measured by the DAPI method (see protocol below).
III—Quantification of the Cellular DNA with […] Dihydrochloride (DAPI) […]
3—Fluorescence Quantification: […]

CD44 receptor = assay: Functionality of the CD44 receptor: hyaluronic acid binding by keratinocytes after 48 hours of treatment, normalized to cellular DNA (protocol II-9); assay type: cell-based, human; settings: 0.22 mM
Procedure: The products whose activity on the expression of the CD44 receptor it is desired to evaluate are added to the culture medium 24 hours after inoculation of the cells. To do this, the inoculation medium is removed and replaced with an identical medium containing the test substance. The incubation then continues for 48 hours. Controls are carried out in the absence of the products to be evaluated, and in the presence of the excipient which was used to dissolve them. All the factors are otherwise equal.
9—Measurement of the functionality of the CD44 receptor.
as §1
III—Quantification of the Cellular DNA with […] Dihydrochloride (DAPI)
The quantification of the cellular DNA may be carried out directly on the cultures after quantification of the CD44 expression.
30 μl of methanol at −20° C. are added to each well for 1 min.
After rinsing twice with PBS, a 20 μg/ml DAPI solution is added over 15 minutes at ambient temperature and in darkness.
3—Fluorescence Quantification:
After rinsing twice with PBS, the fluorescence present in the wells is read with 50 μl of PBS at λ excitation=355 nm and λemission=460 nm.

human keratinocytes = settings: for Fluorescence measured (FU) Mean: Table III; for Amount of fluorescence measured compared with calcium chloride at equivalent molarity: 5 and 10 mM
Procedure: I-Measurement of the Amount of Haluronic Acid Bound to the Surface of Keratinocytes
The following steps are performed:
15,000 human keratinocytes are inoculated in culture wells (96-well plates) in a K-SFM medium (Gibco).
2—Production of Confluent Cultures:
Incubation of the cultures for 72 hours at 37° C. under a humidity-saturated atmosphere, with 5% CO2, with renewal of the culture medium after 48 h.
3—Binding of Hyaluronic Acid:
Incubation of the cells for 4 hours at 4° C. with hyaluronic acid covalently bonded to a fluorochrome, […] (HA-FA), synthesized in the laboratory according to the technique described in “Preparation and properties of fluoresceine-labelled hyaluronate; carbohydrate research, 1975, Vol. 44, pp. 251-257”, prepared in K-SFM containing 0.2% sodium azide.
4—Evaluation of the Activity of the Test Products:
The products for which it is desired to evaluate the action on the amount of HA-FA bound by keratinocytes are added to the incubation medium at the start of incubation. Controls are carried out in the absence of the products to be evaluated and in the presence of their excipient which was used to dissolve them.
5—Nonspecific Binding of HA-FA.
In order to determine the nonspecific labelling, the same experimental conditions as in step 3 are rigorously used, but with the addition of 200 times more hyaluronic acid not labelled with a fluorochrome.
6—Fluorescence Quantification:
After the HA-FA binding medium has been removed, two rinses with PBS are carried out, after which the fluorescence bound to the keratinocytes is measured at an excitation wavelength λex 485 nm and an emission wavelength λem=538 nm.
7—Expressing the Results:
The results are expressed in fluorescence units (“specific fluorescence”), with the nonspecific fluorescence being deducted (see 5-).
To do this, the fluorescence values measured are reduced to the cellular DNA content, carried out according to the DAPI method (see III-).

CC(O)C(=O)[O-].[Na+] (centres unmarked) [Sodium lactate, sodium lactate]
Expression of CD44 at the surface of human keratinocytes % increase (CD44; 48 hours, versus 0 mM control): 32%
Expression of CD44 at the surface of human keratinocytes CD44 (FU)/cellular DNA (FU) labelling Mean (CD44; cells treated for 48 hours, control 189 ± 28): 249 ± 31
Binding of hyaluronic acid to the surface of human keratinocytes Binding (FU)/cellular DNA (FU) Mean (CD44 receptor; 48 hours of treatment, control 59 ± 8.5): 105 ± 24
Binding of hyaluronic acid to the surface of human keratinocytes % increase (CD44 receptor; 48 hours, versus 0 mM control): 78%

O=C([O-])[C@H](O)[C@@H](O)[C@H](O)[C@H](O)CO.[Na+] [sodium gluconate]
Fluorescence measured (FU) Mean (human keratinocytes; sodium gluconate 10 mM with CaCl2 2.5 mM): 27 FU
Fluorescence measured (FU) Mean (human keratinocytes; sodium gluconate 10 mM with CaCl2 5 mM): 84* FU
Fluorescence measured (FU) Mean (human keratinocytes; sodium gluconate 10 mM with CaCl2 10 mM): 2,186* FU
Fluorescence measured (FU) Mean (human keratinocytes; sodium gluconate 10 mM, CaCl2 0 mM): 6 FU
Increase of the effects of calcium on hyaluronic acid binding, factor (human keratinocytes; relatively optimized conditions (10 mM CaCl2 / 2.5 mM sodium gluconate)): ≥ 12

calcium gluconate
Amount of fluorescence measured compared with calcium chloride at equivalent molarity (human keratinocytes): significantly greater

manganese chloride [MnCl2]
Amount of fluorescence measured compared with calcium chloride at equivalent molarity (human keratinocytes): significantly greater
